Test results taken from the METLIN SMRT retention time set (Domingo-Almenara et al. 2019).

Test: gradient 5% acetonitrile 3 min, to 50% in 2 min, to 85% in 15 min, held 3 min, 100 µL/min
Details: column: Zorbax Extend-C18 2.1 x 50 mm; eluents: water / acetonitrile, 0.1% formic acid
How it was run: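 Standards, all pure, were combined into mixtures of ~100 molecules and run at 100 μL/min on a Zorbax Extend-C18 column (2.1 × 50 mm, 1.8 μm) with water and acetonitrile, each containing 0.1% formic acid. A coupled quadrupole time-of-flight mass spectrometer operated in positive and negative ionization mode. Retention time values come from computationally picked adduct peaks, each inspected manually.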

SMILES | RP-LC retention time [s]
Cc1nc(-c2cccnc2)sc1C(=O)/C=C/c1ccc(Cl)cc1Cl | 1150
CCn1cnnc1C1CCCCN1S(=O)(=O)c1ccc(C#N)cc1 (stereo unspecified) | 695
Cc1cc(C)cc(N2CCC(NC(=O)c3ccccc3)C2=O)c1 (stereo unspecified) | 857
CCc1nccn1Cc1noc(-c2ccccc2C)n1 | 649
CCNC(=O)c1csc(N2CCCC2)n1 | 723
O=S(=O)(c1cccc2cccnc12)N1CCCn2nc(-c3ccncc3)cc2C1 | 610
COc1ccc(-c2nnc(-c3cccc(S(=O)(=O)N4CCC(C)CC4)c3)o2)cc1 | 1110
O=S(=O)(NC1CCN(Cc2ccccc2)CC1)c1cc(-c2cc(C(F)(F)F)on2)cs1 | 776
CCNC(=O)N1CCCC(Cn2c(C3CC3)nc3cccnc32)C1 (stereo unspecified) | 585
O=C(NCC1CCCO1)N1CCN(c2nc3ccccc3n(Cc3ccccc3)c2=O)CC1 (stereo unspecified) | 850
Cn1c(=O)n(C)c2cc(S(=O)(=O)c3ccc(F)cc3)c(NC(=O)c3ccccc3)cc21 | 885
Cc1sc2ccn(CC(C)C)c(=O)c2c1C(=O)NCc1ccccc1 | 930
Cc1cc(NC(=O)Cn2c(-c3ccc(F)cc3)ncc(C#N)c2=O)ccc1Br | 1080
CCS(=O)(=O)N1CCC(c2ccccc2)C1 (stereo unspecified) | 791
CN(C)S(=O)(=O)c1ccc(C(=O)N2CCC(c3nnc(C(F)(F)F)o3)CC2)cc1 | 747
O=C1COc2ccc(S(=O)(=O)N3CCC(C(=O)NCCc4ccccc4)CC3)cc2N1 | 740
Cc1ccc2c(Nc3ccc(F)c(C#N)c3)c(C(=O)N3CCOCC3)cnc2n1 | 598
COC(=O)c1ccc(NC(=O)Cn2cccc(-c3nc(-c4ccccc4)no3)c2=O)cc1 | 829
COc1ccccc1NC(=O)Cn1c(C)nc2onc(C)c2c1=O | 772
O=C(Cn1nc2c(Oc3ccccc3)nccn2c1=O)Nc1ccc(F)cc1Cl | 796
Cc1cc(-c2cc(S(=O)(=O)N3CCN(C4CCCCC4)CC3)c(C)s2)n[nH]1 | 657
Cc1ccc(-c2nc3ncccn3c2NCc2ccc(F)cc2)cc1 | 755

SMILES | RP-LC retention time [s]
CN1CCN(C(=O)C2CC(=O)N(c3ccc4c(c3)CCN4C(=O)C3CC3)C2)CC1 (stereo unspecified) | 570
CN(CCc1noc(-c2ccccc2)n1)C(=O)Nc1ccc(F)c(Cl)c1 | 954
COc1ccc(-c2cn3c(CC(=O)NCc4cc(OC)c(OC)c(OC)c4)csc3n2)cc1OC | 652
O=C(C1CCOC1)N1CCC(N(Cc2ccccc2)C2CCOCC2)CC1 (stereo unspecified) | 572
O=C(CCCS(=O)(=O)c1ccc(F)cc1)Nc1cccc(Cl)c1Cl | 850
Cc1ccc(CN2CCN(CC(=O)Nc3ccc4c(c3)OCCO4)C(=O)C2=O)cc1 | 733
Cc1oc(-c2ccc(NC(=O)Cc3cccc(F)c3)cc2)nc1Cn1cccn1 | 814
O=C(Nc1c(-c2ccccc2)nc2ccccn12)c1cccc([N+](=O)[O-])c1 | 596
Cc1ccc2nc(-c3ccccc3O)c(Nc3ccc4c(c3)OCCO4)n2c1 | 684
CCn1cc(S(=O)(=O)N2C[C@@H](COC)[C@H](c3ccccn3)C2)cn1 | 625
Cc1cccc(C(=O)N2CCc3cc(CNS(=O)(=O)c4ccc5c(c4)CC(=O)N5C)ccc32)c1 | 836
CCOC(=O)c1c(C)oc2nc(C)nc(NCC3CCN(Cc4ccc(F)cc4)CC3)c12 | 712
CCc1nc(-c2csc(S(=O)(=O)N3CCC(C(=O)Nc4ccc(C)cc4C)CC3)c2)no1 | 1090
CC(C)c1ccc(S(=O)(=O)N2CCC(n3c(-c4ccco4)nc4cccnc43)C2)cc1 (stereo unspecified) | 1060
Cc1ccc(CNC(=O)CCCn2nc(-n3cccc3)c3c(C)cc(C)nc32)cc1 | 1050
COc1ccc2[nH]c(=O)c(CCC(=O)NCCN(C)C3CCCCC3)cc2c1 | 598
COCCN1CCn2cc(S(=O)(=O)Nc3ccc(Cl)cc3F)cc2C1=O | 734
CC(C)n1c(=O)oc2cc(-c3noc(-c4cccc(Cl)c4)n3)ccc21 | 1180
COc1cccc2c1C(=O)c1c(O)c3c(c(O)c1C2=O)C[C@@](O)(/C(C)=N\O)C[C@@H]3OC1CC(N)C(O)C(C)O1 (stereo partly specified) | 681
CCn1c(=O)c2ccccc2n(Cc2nc(-c3ccc(C)cc3)no2)c1=O | 1070
CCn1nc(CNC(=O)Cc2cccs2)c2ccccc21 | 766
O=C(c1cccc2[nH]ccc12)N1CCC2(CC1)N=C(c1ccc(Cl)cc1)NO2 | 804

SMILES | RP-LC retention time [s]
c1ccc(-c2nc(-c3ccnc(N4CCOCC4)c3)no2)nc1 | 665
CCNC(=O)N1CCC(OC2CCN(Cc3ccccc3)CC2)CC1 | 570
CCN1CCN(CCCNc2nnc(-c3nc(C4CC4)no3)c3ccccc23)CC1 | 584
CCCCC(Sc1nc(=O)[nH]c(C)c1C(=O)OCC)C(=O)O (stereo unspecified) | 663
O=C1CC2(CCN(S(=O)(=O)c3ccc([N+](=O)[O-])cc3)CC2)Oc2ccccc21 | 907
Cc1noc(C2CCCCN2Cc2nc(-c3cccnc3)no2)n1 (stereo unspecified) | 656
COc1cccc(-c2nc(Cn3ccn4nc(-c5ccccc5)cc4c3=O)c(C)o2)c1OC | 1020
O=C(CC1CCN(C(=O)c2cc(F)ccc2F)C1)NC1CC1 (stereo unspecified) | 630
CCCNC(=O)N1CCN(c2nc3ccccc3n(Cc3ccccc3)c2=O)CC1 | 863
Cc1cc(C)n(Cc2nc(-c3ccc(NC(=O)Cc4cccc(F)c4)cc3)oc2C)n1 | 930
COc1ccc(OC)c(-c2cn3ccn(-c4ccc(OC)c(Cl)c4)c(=O)c3n2)c1 | 885
CCN1CCN(CCCNC(=O)C2CCCN(c3nnc(-n4c(C)ccc4C)s3)C2)CC1 (stereo unspecified) | 592
COC(=O)c1cncc(C)c1 | 662
COCC1CN(C(=O)c2ccc3cc[nH]c3c2)CC12CCOCC2 (stereo unspecified) | 680
COCCc1noc(-c2cnc3nc(C)ccc3c2Nc2cccc(Cl)c2)n1 | 763
Cc1cc(NC(=O)C2CCN(S(C)(=O)=O)c3ccccc3O2)ccc1Br (stereo unspecified) | 1040
COc1ccc(S(=O)(=O)NCc2ccc3c(c2)CCN3C(=O)CC(C)C)cc1OC | 858
CCOc1ccc(NC(=O)NCCn2c(C(F)(F)F)nc3cccnc32)cc1 | 756
CCS(=O)(=O)Nc1ccc(-c2noc(COc3ccc(Cl)cc3)n2)cc1 | 1010
O=C(NCc1csc(C2CCN(C(=O)c3c(F)cccc3F)CC2)n1)C1CCC1 | 740
O=S(=O)(c1cccs1)N1CCN(c2ccc(Nc3cccnc3)nn2)CC1 | 548
CCOc1ccc(S(=O)(=O)N2CCC3(CCC(CN4CCN(C)CC4)O3)CC2)cc1 (stereo unspecified) | 611
